Measured values: ChEMBL document CHEMBL4706634, “PEGylated and Acylated Elabela Analogues Show Enhanced Receptor Binding, Prolonged Stability, and Remedy of Acute Kidney Injury” (J Med Chem, 2020)
Calls of active or inactive are those of the source. No cut-off for these calls is given here.

How the values were obtained:
Mus musculus [1] = assay: Reno-protective activity in C57BL/6 mouse model of renal I/R injury assessed as reduction lymphocyte infiltration dosed intraperitoneally twice per day for 3 days from day of I/R injury to end of experiment; format: functional, organism-based; settings: time 3.0 day
[2] = Stability in mouse plasma assessed as half life at 1.56 mM by RP-HPLC analysis; format: ADME, cell-free
Mus musculus [3] = assay: Reno-protective activity in C57BL/6 mouse model of renal I/R injury assessed as reduction in fibrosis by measuring collagen deposition dosed intraperitoneally twice per day for 3 days from day of I/R injury to end of experiment by Masson staining based assay; format: functional, organism-based; settings: time 3.0 day
Mus musculus [4] = assay: Reno-protective activity in C57BL/6 mouse model of renal I/R injury assessed as reduction N-gal mRNA levels dosed intraperitoneally twice per day for 3 days from day of I/R injury to end of experiment by qPCR analysis; format: functional, organism-based; settings: time 3.0 day
Apelin receptor = target: T1, Apelin receptor (Rattus norvegicus, UniProt Q9JHG3); assay: Agonist activity at APJ receptor in rat NRK-52E cells assessed as effect on cAMP accumulation incubated for 1 hr by cAMP-Glo assay; format: functional, cell-based
T1 sequence (Q9JHG3 whole entry): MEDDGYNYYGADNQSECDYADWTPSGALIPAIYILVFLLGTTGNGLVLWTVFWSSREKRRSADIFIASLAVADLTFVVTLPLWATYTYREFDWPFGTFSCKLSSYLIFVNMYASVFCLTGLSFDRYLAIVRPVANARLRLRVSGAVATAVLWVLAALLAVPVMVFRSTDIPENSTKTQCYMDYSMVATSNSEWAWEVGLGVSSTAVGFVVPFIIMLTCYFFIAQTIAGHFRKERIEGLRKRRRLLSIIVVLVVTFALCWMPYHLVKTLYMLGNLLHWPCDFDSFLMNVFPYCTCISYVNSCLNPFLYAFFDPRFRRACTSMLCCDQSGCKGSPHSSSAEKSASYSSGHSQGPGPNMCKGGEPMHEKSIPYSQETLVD

Mus musculus [5] = assay: Reno-protective activity in C57BL/6 mouse model of renal I/R injury assessed as improvement in pathologies in injured kidneys dosed intraperitoneally twice per day for 3 days from day of I/R injury to end of experiment by hematoxylin and eosin staining based assay; format: functional, organism-based; settings: time 3.0 day
Mus musculus [6] = assay: Reno-protective activity in C57BL/6 mouse model of renal I/R injury assessed as reduction in cleaved-caspase-3 levels dosed intraperitoneally twice per day for 3 days from day of I/R injury to end of experiment by Western blot analysis; format: functional, organism-based; settings: time 3.0 day
[7] = Stability in mouse plasma assessed as intact peptide level at 1.56 mM incubated for 1 hr by RP-HPLC analysis; format: ADME, cell-free; settings: read-out: Stabilty
Mus musculus [8] = assay: Reno-protective activity in C57BL/6 mouse model of renal I/R injury assessed as reduction in p-MLK levels dosed intraperitoneally twice per day for 3 days from day of I/R injury to end of experiment by Western blot analysis; format: functional, organism-based; settings: time 3.0 day
NRK-52E [9] = assay: Cytoprotective activity in rat NRK-52E cells assessed as reduction in cisplatin-induced cell death at 300 pM incubated for 24 hrs; format: functional, cell-based
NRK-52E [10] = assay: Cytoprotective activity in rat NRK-52E cells assessed as reduction in H/R-injury induced cell death at 300 pM incubated for 24 hrs; format: functional, cell-based
Mus musculus [11] = assay: Reno-protective activity in C57BL/6 mouse model of renal I/R injury assessed as reduction in apoptosis by measuring increase in number of TUNEL+ cells dosed intraperitoneally twice per day for 3 days from day of I/R injury to end of experiment by TUNEL assay; format: functional, organism-based; settings: time 3.0 day
[12] = Stability in human plasma assessed as half life at 1.56 mM by RP-HPLC analysis; format: ADME, cell-free
Mus musculus [13] = assay: Reno-protective activity in C57BL/6 mouse model of renal I/R injury assessed as reduction in serum BUN level dosed intraperitoneally twice per day for 3 days from day of I/R injury to end of experiment; format: functional, organism-based; settings: time 3.0 day
Mus musculus [14] = assay: Reno-protective activity in C57BL/6 mouse model of renal I/R injury assessed as reduction neutrophil infiltration dosed intraperitoneally twice per day for 3 days from day of I/R injury to end of experiment; format: functional, organism-based; settings: time 3.0 day
Mus musculus [15] = assay: Reno-protective activity in C57BL/6 mouse model of renal I/R injury assessed as suppression of reduction in cleaved-caspase-8 levels dosed intraperitoneally twice per day for 3 days from day of I/R injury to end of experiment by Western blot analysis; format: functional, organism-based; settings: time 3.0 day
Mus musculus [16] = assay: Reno-protective activity in C57BL/6 mouse model of renal I/R injury assessed as reduction lymphocyte infiltration dosed intraperitoneally twice per day for 3 days starting from 6 to 24 hrs post I/R operation; format: functional, organism-based; settings: time 3.0 day
Mus musculus [17] = assay: Reno-protective activity in C57BL/6 mouse model of renal I/R injury assessed as reduction in serum creatinine level dosed intraperitoneally twice per day for 3 days from day of I/R injury to end of experiment; format: functional, organism-based; settings: time 3.0 day
[18] = Half life in mouse at 3 umol/kg, iv by analytical RP-HPLC analysis; format: ADME, organism-based; settings: in vivo, dose 3 µmol/kg
Mus musculus [19] = assay: Reno-protective activity in C57BL/6 mouse model of renal I/R injury assessed as reduction Kim1 mRNA levels dosed intraperitoneally twice per day for 3 days from day of I/R injury to end of experiment by qPCR analysis; format: functional, organism-based; settings: time 3.0 day
Mus musculus [20] = assay: Reno-protective activity in C57BL/6 mouse model of renal I/R injury assessed as reduction TNF-alpha mRNA levels dosed intraperitoneally twice per day for 3 days from day of I/R injury to end of experiment by qPCR analysis; format: functional, organism-based; settings: time 3.0 day
Mus musculus [21] = assay: Reno-protective activity in C57BL/6 mouse model of renal I/R injury assessed as reduction Il6 mRNA levels dosed intraperitoneally twice per day for 3 days from day of I/R injury to end of experiment by qPCR analysis; format: functional, organism-based; settings: time 3.0 day
Mus musculus [22] = assay: Reno-protective activity in C57BL/6 mouse model of renal I/R injury assessed as suppression of renal dysfunction dosed intraperitoneally twice per day for 3 days starting from 6 hrs post I/R operation by hematoxylin and eosin staining based assay; format: functional, organism-based; settings: time 3.0 day
Mus musculus [23] = assay: Reno-protective activity in C57BL/6 mouse model of renal I/R injury assessed as reduction Kim1 mRNA expression dosed intraperitoneally twice per day for 3 days starting from 6 to 24 hrs post I/R operation by qPCR analysis; format: functional, organism-based; settings: time 3.0 day
Mus musculus [24] = assay: Reno-protective activity in C57BL/6 mouse model of renal I/R injury assessed as reduction neutrophil infiltration dosed intraperitoneally twice per day for 3 days starting from 6 to 24 hrs post I/R operation; format: functional, organism-based; settings: time 3.0 day
Mus musculus [25] = assay: Reno-protective activity in C57BL/6 mouse model of renal I/R injury assessed as reduction in tubular epithelial cell apoptosis dosed intraperitoneally twice per day for 3 days starting from 6 to 24 hrs post I/R operation by TUNEL assay; format: functional, organism-based; settings: time 3.0 day
Mus musculus [26] = assay: Reno-protective activity in C57BL/6 mouse model of renal I/R injury assessed as reduction in tubular epithelial cell necroptosis dosed intraperitoneally twice per day for 3 days starting from 6 to 24 hrs post I/R operation by TUNEL assay; format: functional, organism-based; settings: time 3.0 day
Mus musculus [27] = assay: Reno-protective activity in C57BL/6 mouse model of renal I/R injury assessed as suppression of renal tubular damage dosed intraperitoneally twice per day for 3 days starting from 6 to 24 hrs post I/R operation by hematoxylin and eosin staining based assay; format: functional, organism-based; settings: time 3.0 day
Mus musculus [28] = assay: Reno-protective activity in C57BL/6 mouse model of renal I/R injury assessed as reduction in fibrosis by measuring collagen deposition dosed intraperitoneally twice per day for 3 days starting from 6 to 24 hrs post I/R operation by Masson staining based assay; format: functional, organism-based; settings: time 3.0 day

Row | Compound | half-life at 1560 µM [2] | EC50 (Apelin receptor) | remaining at 1 h, 1560 µM [7] | half-life at 1560 µM [12] | half-life [18] | Activity (Mus musculus [1]) | Activity (Mus musculus [3]) | Activity (Mus musculus [4]) | Activity (Mus musculus [5]) | Activity (Mus musculus [6]) | Activity (Mus musculus [8]) | Activity (NRK-52E [9]) | Activity (NRK-52E [10]) | Activity (Mus musculus [11]) | Activity (Mus musculus [13]) | Activity (Mus musculus [14]) | Activity (Mus musculus [15]) | also measured
1 | CSCC[C@H](NC(=O)[C@H](CS)NC(=O)CC[C@H](NC(=O)CCOCCOCCOCCOCCOCCOCCN)C(=O)O)C(=O)N1CCC[C@H]1C(=O)N[C@@H](CC(C)C)C(=O)N[C@@H](Cc1c[nH]cn1)C(=O)N[C@@H](CO)C(=O)N[C@@H](CCCNC(=N)N)C(=O)N[C@H](C(=O)N1CCC[C@H]1C(=O)N[C@@H](Cc1ccccc1)C(=O)N1CCC[C@H]1C(N)=O)C(C)C | 47.4 min | 7.84 nM | 38.7% | 106 min |  | Active | Active | Active | Active | Active | Active | Active | Active | Active | Active | Active | Active | 
2 | CSCC[C@H](NC(=O)[C@H](CS)NC(=O)[C@H](CCCNC(=N)N)NC(=O)[C@H](CCCNC(=N)N)NC(=O)[C@@H]1CCC(=O)N1)C(=O)N1CCC[C@H]1C(=O)N[C@@H](CC(C)C)C(=O)N[C@@H](Cc1c[nH]cn1)C(=O)N[C@@H](CO)C(=O)N[C@@H](CCCNC(=N)N)C(=O)N[C@H](C(=O)N1CCC[C@H]1C(=O)N[C@@H](Cc1ccccc1)C(=O)N1CCC[C@H]1C(N)=O)C(C)C | 17.4 min |  |  |  |  |  |  |  |  |  |  |  |  |  |  |  |  | 
3 | CSCC[C@H](NC(=O)[C@@H](N)CS)C(=O)N1CCC[C@H]1C(=O)N[C@@H](CC(C)C)C(=O)N[C@@H](Cc1c[nH]cn1)C(=O)N[C@@H](CO)C(=O)N[C@@H](CCCNC(=N)N)C(=O)N[C@H](C(=O)N1CCC[C@H]1C(=O)N[C@@H](Cc1ccccc1)C(=O)N1CCC[C@H]1C(N)=O)C(C)C | 22.8 min |  | 19% | 23.4 min | 21 min | Active | Active |  | Active | Active | Active | Active | Active | Active |  | Active | Active | 

Second part, led by results:

Row | half-life at 1560 µM [2] | EC50 (Apelin receptor) | remaining at 1 h, 1560 µM [7] | half-life at 1560 µM [12] | half-life [18] | Compound | Activity (Mus musculus [1]) | Activity (Mus musculus [3]) | Activity (Mus musculus [4]) | Activity (Mus musculus [5]) | Activity (Mus musculus [6]) | Activity (Mus musculus [8]) | Activity (NRK-52E [9]) | Activity (NRK-52E [10]) | Activity (Mus musculus [11]) | Activity (Mus musculus [13]) | Activity (Mus musculus [14]) | Activity (Mus musculus [15]) | also measured
4 | 87 min |  | 63.6% | 118 min | 1350 min | CCCCCCCCCCCCCCCC(=O)N[C@@H](CCC(=O)N[C@@H](CS)C(=O)N[C@@H](CCSC)C(=O)N1CCC[C@H]1C(=O)N[C@@H](CC(C)C)C(=O)N[C@@H](Cc1c[nH]cn1)C(=O)N[C@@H](CO)C(=O)N[C@@H](CCCNC(=N)N)C(=O)N[C@H](C(=O)N1CCC[C@H]1C(=O)N[C@@H](Cc1ccccc1)C(=O)N1CCC[C@H]1C(N)=O)C(C)C)C(=O)O | Active | Active | Active | Active | Active | Active | Active | Active | Active | Active | Active | Active | Activity (Mus musculus [16]): Active; Activity (Mus musculus [17]): Active; Activity (Mus musculus [19]): Active; Activity (Mus musculus [20]): Active; Activity (Mus musculus [21]): Active; Activity (Mus musculus [22]): Active; Activity (Mus musculus [23]): Active; Activity (Mus musculus [24]): Active; Activity (Mus musculus [25]): Active; Activity (Mus musculus [26]): Active; Activity (Mus musculus [27]): Active; Activity (Mus musculus [28]): Active
5 | 30 min | 7.98 nM | 25.8% | 37.8 min |  | CCCCCCCCCCCCCCCC(=O)N[C@@H](CCC(=O)NCCCC[C@H](N)C(=O)N[C@@H](CS)C(=O)N[C@@H](CCSC)C(=O)N1CCC[C@H]1C(=O)N[C@@H](CC(C)C)C(=O)N[C@@H](Cc1c[nH]cn1)C(=O)N[C@@H](CO)C(=O)N[C@@H](CCCNC(=N)N)C(=O)N[C@H](C(=O)N1CCC[C@H]1C(=O)N[C@@H](Cc1ccccc1)C(=O)N1CCC[C@H]1C(N)=O)C(C)C)C(=O)O | Active | Active |  | Active | Active | Active |  |  | Active |  | Active | Active | 
6 | 305 min | 9.48 nM | 75.9% | > 1440 min |  | CCCCCCCCCCCCCCCC(=O)N[C@@H](CCC(=O)NCCCC[C@H](NC(=O)CCC(=O)N[C@@H](CS)C(=O)N[C@@H](CCSC)C(=O)N1CCC[C@H]1C(=O)N[C@@H](CC(C)C)C(=O)N[C@@H](Cc1c[nH]cn1)C(=O)N[C@@H](CO)C(=O)N[C@@H](CCCNC(=N)N)C(=O)N[C@H](C(=O)N1CCC[C@H]1C(=O)N[C@@H](Cc1ccccc1)C(=O)N1CCC[C@H]1C(N)=O)C(C)C)C(=O)N[C@@H](CS)C(=O)N[C@@H](CCSC)C(=O)N1CCC[C@H]1C(=O)N[C@@H](CC(C)C)C(=O)N[C@@H](Cc1c[nH]cn1)C(=O)N[C@@H](CO)C(=O)N[C@@H](CCCNC(=N)N)C(=O)N[C@H](C(=O)N1CCC[C@H]1C(=O)N[C@@H](Cc1ccccc1)C(=O)N1CCC[C@H]1C(N)=O)C(C)C)C(=O)O | inactive | inactive |  | inactive |  |  |  |  |  |  | inactive |  | 
